Assay results: patent US20230152329A1, “NOVEL SPLIT-LUCIFERASE ENZYMES AND APPLICATIONS THEREOF” (ARIZONA BOARD OF REGENTS ON BEHALF OF THE UNIVERSITY OF …, priority 2020, published 2023)
Like-named read-outs stand apart in the source and are kept apart here.

B1: Y33A: first-generation split-Fluc228 with N-FLuc228 Y33A single mutant (SEQ ID NO: 8) (protein)
chain: MEDAKNIKKGPAPFYPLEDGTAGEQLHKAMKRAALVPGTIAFTDAHIEVNITYAEYFEMSVRLAEAMKRYGLNTNHRIVVCSENSLQFFMPVLGALFIGVAVAPANDIYNERELLNSMNISQPTVVFVSKKGLQKILNVQKKLPIIQKIIIMDSKTDYQGFQSMYTFVTSHLPPGFNEYDFVPESFDRDKTIALIMNSSGSTGLPKGVALPHRTACVRFSHARDPIFG
B2: H46A: first-generation split-Fluc228 with N-FLuc228 H46A single mutant (SEQ ID NO: 7) (protein)
chain: MEDAKNIKKGPAPFYPLEDGTAGEQLHKAMKRYALVPGTIAFTDAAIEVNITYAEYFEMSVRLAEAMKRYGLNTNHRIVVCSENSLQFFMPVLGALFIGVAVAPANDIYNERELLNSMNISQPTVVFVSKKGLQKILNVQKKLPIIQKIIIMDSKTDYQGFQSMYTFVTSHLPPGFNEYDFVPESFDRDKTIALIMNSSGSTGLPKGVALPHRTACVRFSHARDPIFG

Key:
[1] = biological target: T1, protein-protein interaction of Bcl-xL and BAK (Homo sapiens, UniProt Q07817); assay: In cellulo split-luciferase assay, inhibition of Bcl-xL/BAK interaction in HEK293T cells; format: cell-based; details: 14 hours; for inhibition at 10 µM: HEK-293T, read-out: Percent Inhibition
T1 construct: appending the soluble domain of Bcl-xL to the C-terminal fragment of N-Fluc228 Y33A/H46A; expressed in transfected cells; host or cells: HEK293T, transient transfection (pcDNA 3.1 constructs)
T1 sequence (Q07817 1-209 limits assumed): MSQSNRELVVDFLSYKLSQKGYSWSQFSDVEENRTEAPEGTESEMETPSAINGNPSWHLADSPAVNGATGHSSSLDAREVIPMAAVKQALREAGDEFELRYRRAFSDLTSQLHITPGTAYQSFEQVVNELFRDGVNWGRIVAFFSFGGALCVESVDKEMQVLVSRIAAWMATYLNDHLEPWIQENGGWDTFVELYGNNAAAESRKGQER
Description: N-terminal halves of firefly luciferase (N-Fluc) constructs were generated by fusing FK506-binding protein (FKBP) or Bcl-xL 209 (CΔ24) to the C-terminal of N-Fluc with a 27-residue glycine-serine linker in pcDNA 3.1 via restriction cloning. […] For in vitro assays, mRNA was generated using RiboMaX large scale RNA production system (T7) for 4 h at 30° C. and subsequently purified using G50-microcolumns.
HEK293T cells were maintained in DMEM supplemented with 10% (v/v) FBS, 2.5 μg/mL Amphotericin B, 100 U/mL penicillin, and 100 μg/mL streptomycin, and in a 37° C. water-saturated incubator with 5% CO2. For in cellulo experiments, 3×10^6 cells were seeded in 60 mm dishes for 24 h and then transiently transfected with equal amounts of DNA of each luciferase fragment using PolyJet In Vitro DNA Transfection Reagent. Twelve hours following transfection, 2.5×10^5 cells were transferred to 24-well plates and incubated for an additional 24 h. […] All reported data was done at least in duplicate and repeated on different days. Data from luciferase assays were all normalized by lysate load and with background correction of equivalently treated mock transfected HEK293T cells.
Split-Fluc228 Y33A/H46A constructs were created by appending the soluble domain of Bcl-xL to the C-terminal fragment of N-Fluc228 Y33A/H46A with a 27-residue glycine-serine linker, giving N-Fluc228 Y33A/H46A-GS27-Bcl-xL. The BH3 domain of BAK (20 residues) was appended to the N-terminal fragment of C-Fluc229 through a 30-residue glycine-serine linker, providing BAK-GS30-C-Fluc229.

FKBP-Rapamycin-FRB = biological target: T2, FKBP-Rapamycin-FRB (Homo sapiens, UniProt P42345+P62942); assay: Cell-free (rabbit reticulocyte lysate) rapamycin-inducible split-luciferase assay; format: biochemical; details: cell-free RRL; for rapamycin dependent luminescence signal (overall signal): 100 nM rapamycin; for unassisted/background complementation: without added rapamycin (DMSO)
T2 construct: N-terminal fragment of firefly luciferase (N-Fluc); split at 159, 228, 374, 397 or 405; C-terminal fragment of firefly luciferase (C-Fluc); made in house; host or cells: cell-free translation in rabbit reticulocyte lysate (RRL) from in vitro transcribed mRNA
T2 sequence (P62942 whole entry, the tested form may be a part): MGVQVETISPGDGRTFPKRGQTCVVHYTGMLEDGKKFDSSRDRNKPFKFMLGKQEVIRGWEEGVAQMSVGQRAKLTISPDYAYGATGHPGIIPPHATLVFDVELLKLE
T2 sequence (P42345 2012-2144 limits assumed): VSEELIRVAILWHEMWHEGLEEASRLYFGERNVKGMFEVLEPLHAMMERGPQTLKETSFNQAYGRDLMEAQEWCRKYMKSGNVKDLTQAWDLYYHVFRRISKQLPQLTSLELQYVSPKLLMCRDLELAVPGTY
Text: N-terminal halves of firefly luciferase (N-Fluc) constructs were generated by fusing FK506-binding protein (FKBP) or Bcl-xL 209 (CΔ24) to the C-terminal of N-Fluc with a 27-residue glycine-serine linker in pcDNA 3.1 via restriction cloning. C-terminal halves of firefly luciferase (C-Fluc) were created by fusing either FKBP rapamycin-binding (FRB) domain or the BH3-domain of BAK to the N-terminal of C-Fluc with a 30-residue glycine-serine linker in pcDNA 3.1 via restriction cloning. For in vitro assays, mRNA was generated using RiboMaX large scale RNA production system (T7) for 4 h at 30° C. and subsequently purified using G50-microcolumns.
Following translation, 20 μL of lysate was added to 80 μL of L-Glo luciferase assay reagent, incubated at room temperature for 1 min and luminescence was subsequently read using a luminometer with 10 s integration time. All reported data are at least in duplicate and assays have been repeated on different days. Data from the reported luciferase assays were all normalized with background correction of equivalent treatment of RRL without added mRNA.
The N-terminal fragment of each split-luciferase was fused to FKBP at the C-terminal end and the C-terminal fragment of each split-luciferase was fused to FRB at the N-terminal end. Referring to FIG. 2A, the linkers between the enzyme fragments and the FKBP or FRB included 27 to 30 residue glycine-serine linkers. With the five split-Fluc constructs in hand, complementation was tested employing a cell-free protein expression approach using rabbit reticulocyte lysate (RRL), which allows for rapid protein expression and analysis. […] Following incubation, L-Glo reagent containing the substrate, luciferin, was added to each of the split-Fluc pairs and luminescence was subsequently measured.

[2] = 10 μM ABT-737, N-Fluc228 WT-Bcl-xL CΔ24 with BAK-CFluc229, HEK293T
[3] = 10 μM ABT-737, N-Fluc228 Y33A/H46A-Bcl-xL CΔ24 with BAK-CFluc229, HEK293T

Row | Molecule | Average RLU [1, 2] | Average RLU [1, 3] | Percent Inhibition [1, 3] | inhibition at 10 µM [1, 2] | inhibition at 10 µM [1, 3] | rapamycin dependent luminescence signal (overall signal) (FKBP-Rapamycin-FRB) | unassisted/background complementation (FKBP-Rapamycin-FRB)
1 | CN(C)CC[C@H](CSc1ccccc1)Nc1ccc(S(=O)(=O)NC(=O)c2ccc(N3CCN(Cc4ccccc4-c4ccc(Cl)cc4)CC3)cc2)cc1[N+](=O)[O-] [ABT-737] | 438,145 RLU | 2,258 RLU | 99.8% | 96.1% | > 99% |  | 
2 | B1 |  |  |  |  |  | maintaining strong rapamycin dependent signals | significantly reduced unassisted complementation
3 | B2 |  |  |  |  |  | maintaining strong rapamycin dependent signals | significantly reduced unassisted complementation
